Consider 19 compounds from patent publication US20240360148A1 (SUVALENT THERAPEUTICS, INC., priority 2021, published 2024).

Structures are written as SMILES.

As a reminder, the IC50 is the concentration that inhibits the measured activity by half.

In assay [1] the target is SAE1 (Homo sapiens (Human), UniProt Q9UBE0+Q9UBT2). The assay can be described thus: SAE High Throughput Biochemical Assay (HTRF), 15 min preincubation. Conditions: read-out: 15 min preincubation HTRF IC50 (μM) Ave, SAE1 12.5 nM, ATP 100 μM. A digest of the protocol: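 SAE1 (12.5 nM) was preincubated with compound for 15 min at RT in HEPES pH 7.5, 0.1% BSA, 10 mM MgCl2. The reaction was then started with SUMO-GST and UBC9-His (40 nM each) plus 100 μM ATP for 45 min. After KF stop, HTRF (anti-GST-XL665/anti-His-EuK) was read at 2 h and overnight; some compounds were tested singly at 25 micromolar as percent of control.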

Assay [2] has as its system sumoylation levels (SUMO 2/3 conjugates) in HCT-116 cells. Kind of assay: HCT-116 4 Hour Cell Assay (Western, SUMO 2/3 conjugates). It is filed as cell-based. Conditions: Homo sapiens, HCT-116, 4 h, 4 h treatment, Anti-Sumo 2-3 immunoblot, read-out: HCT-116 Western 4 h IC50 (μM) Ave. The procedure: This protocol describes the procedures used to assess the effects of compounds of interest on sumoylation levels. Immunoblot of SUMO 2/3 conjugates are performed and IC50 curves are generated upon quantification of sumoylations bands. HCT-116 cells are seeded in a 12 well plate (500,000 cells/well). The following day the cells are treated with compounds of interest (resuspended in DMSO) for 4 hours (11 concentrations with a three-fold dilution; starting concentration 25 μM) Following 4 hours of incubation the cells are washed with ice cold PBS 1×and protein extraction is performed with RIPA buffer supplemented with phosphatases and proteases inhibitors, 25 mM of NEM and 50 units/mL of Benzonase. Samples undergo centrifugation at 13,000 RPM, 4° C., for 10 minutes and the supernatant is collected. Protein quantification is performed using BCA. Non-Reducing Laemmli Buffer is added to the samples. Samples are heated at 75° C. for 10 minutes, and are centrifuged for 3 minutes at 9000 RPM Nupage 4-12% Bis Tris gels and 1× MOPS buffer (Fisher Scientific)+1× NuPAGE Antioxidant (Invitrogen) are used to perform the SDS-PAGE gel electrophoresis (20 to 40 μg of proteins are loaded in the gels). Proteins are then transferred to PVDF membranes and the level of total proteins are measured by staining with Revert Total Protein Stain and the fluorescent bands are acquired using the LI-COR FC (700 nm for 1 min) Membranes are blocked for 5 minutes with Bio-Rad Blocking Buffer and are subsequently incubated over night at 4° C. with Anti-Sumo 2-3 mAb (M BL #M114-3, 1:1000 in Bio-Rad Blocking Buffer, 0.2% Tween 20) Membranes are washed with 1×TBS-T (3 times for 5 minutes) and sumoylation is detected using Li-cor IRDye 800CW Goat anti-Mouse IgG secondary antibody (1:10,000 dilution) upon 1 hour of incubation in blocking buffer with 0.2% Tween 20 and 0.01% SDS. After the incubation, the membranes are washed with 1×TBS-T (3 times for 5 minutes). To visualize the fluorescent bands the membranes are scanned with LI-COR FC (700 nm for 1 min and […] for 2 mins). Sumoylation levels are quantified upon normalization with total protein levels, using the LI-COR Image Studio Lite 5.2 Software.

Sequence of SAE1 (Q9UBE0 whole entry): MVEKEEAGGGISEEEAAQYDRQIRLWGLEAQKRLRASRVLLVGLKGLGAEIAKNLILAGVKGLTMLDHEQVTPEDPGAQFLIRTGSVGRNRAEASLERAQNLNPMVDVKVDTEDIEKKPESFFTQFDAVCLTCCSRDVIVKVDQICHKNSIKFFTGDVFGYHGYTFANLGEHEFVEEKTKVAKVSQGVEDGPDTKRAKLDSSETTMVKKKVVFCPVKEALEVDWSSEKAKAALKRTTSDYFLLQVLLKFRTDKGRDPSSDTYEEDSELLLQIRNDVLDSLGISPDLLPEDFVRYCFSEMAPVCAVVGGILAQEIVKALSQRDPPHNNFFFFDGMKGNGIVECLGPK
Sequence of SAE1 (Q9UBT2 whole entry): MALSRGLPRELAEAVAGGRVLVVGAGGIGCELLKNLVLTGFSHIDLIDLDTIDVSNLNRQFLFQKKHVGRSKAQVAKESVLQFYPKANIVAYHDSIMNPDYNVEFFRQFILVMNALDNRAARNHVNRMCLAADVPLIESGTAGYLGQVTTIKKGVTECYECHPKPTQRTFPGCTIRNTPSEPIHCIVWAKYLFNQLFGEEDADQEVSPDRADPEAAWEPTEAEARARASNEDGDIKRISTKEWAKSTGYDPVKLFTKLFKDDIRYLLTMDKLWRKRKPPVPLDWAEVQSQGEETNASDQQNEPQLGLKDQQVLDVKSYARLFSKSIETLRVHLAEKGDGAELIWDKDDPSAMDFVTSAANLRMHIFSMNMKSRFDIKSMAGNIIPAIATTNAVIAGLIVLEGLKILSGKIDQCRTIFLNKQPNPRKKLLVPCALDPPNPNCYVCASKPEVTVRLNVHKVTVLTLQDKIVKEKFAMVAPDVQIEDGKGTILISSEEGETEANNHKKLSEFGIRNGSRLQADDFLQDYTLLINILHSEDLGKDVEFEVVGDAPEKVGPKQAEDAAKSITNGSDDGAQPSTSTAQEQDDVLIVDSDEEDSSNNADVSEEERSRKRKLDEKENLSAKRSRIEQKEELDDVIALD

For `CCn1cc(-c2ccccc2[C@@H]2CN(C(=O)/C=C/CN3CCC(C(=O)O)C3)Cc3sc(C#N)cc32)c(C(F)(F)F)n1` (stereo partly drawn) [Example 5, 1-((E)-4-((S)-2-Cyano-4-(2-(1-ethyl-3-(trifluoromethyl)-1 H-pyrazol-4-yl)phenyl)-4,7-dihydrothieno[2,3-c]pyridin-6(5H)-yl)-4-oxobut-2-en-1-yl)pyrrolidine-3-carboxylic acid], the IC50 in assay [1] was determined as 10.3 µM; in assay [2] it was 14.1 µM.

For the compound `CCn1cc(-c2c(F)cccc2[C@@H]2CN(C(=O)/C=C/[C@@H]3C[C@H](OC)CN3)Cc3sc(C#N)cc32)c(C(F)(F)F)n1` [Example 119, (S)-4-(2-(1-Ethyl-3-(trifluoromethyl)-1H pyrazol-4-yl)-3-fluorophenyl)-6-((E)-3-((2S,4S)-4-methoxypyrrolidin-2-yl)acryloyl)-4,5,6,7-tetrahydrothieno[2,3-c]pyridine-2-carbonitrile], the IC50 is 0.44 µM in assay [1] and 0.121 µM in assay [2].

For the compound `CCn1cc(-c2c(C)cccc2C2CN(C(=O)/C=C/CN(C)C)Cc3sc(C#N)cc32)c(C(F)(F)F)n1` (centres unmarked) [Example 200, (E)-6-(4-(Dimethylamino)but-2-enoyl)-4-(2-(1-ethyl-3-(trifluoromethyl)-1 H-pyrazol-4-yl)-3-methylphenyl)-4,5,6,7-tetrahydrothieno[2,3-c]pyridine-2-carbonitrile], the IC50 in assay [1] is 2.28 µM; in assay [2] it was 0.891 µM.

With `Cn1cc(-c2c(F)cccc2[C@@H]2CN(C(=O)/C=C/[C@@H]3CCCN3)Cc3sc(C#N)cc32)c(C(F)(F)F)n1` [Example 128, (S)-4-(3-Fluoro-2-(1-methyl-3-(trifluoromethyl)-1H-pyrazol-4-yl)phenyl)-6-((E)-3-((S)pyrrolidin-2-yl)acryloyl)-4,5,6,7-tetrahydrothieno[2,3-c]pyridine-2-carbonitrile], the IC50 in assay [1] is 0.75 µM; in assay [2], 0.0658 µM.

Consider `CCn1cc(-c2ccccc2[C@@H]2CN(C(=O)/C=C/CNCC(C)C)Cc3sc(C#N)cc32)c(C(F)(F)F)n1` [Example 104], for which the IC50 in assay [1] was 2.14 µM; in assay [2] it was 1.78 µM.

For `CCn1cc(-c2ccccc2[C@@H]2CN(C(=O)C#CC3(N)CC3)Cc3sc(C#N)cc32)c(C(F)(F)F)n1` [Example 136, (S)-6-(3-(1-Aminocyclopropyl)propioloyl)-4-(2-(1-ethyl-3-(trifluoromethyl)-1 H-pyrazol-4-yl)phenyl)-4,5,6,7-tetrahydrothieno[2,3-c]pyridine-2-carbonitrile], the half-maximal inhibitory concentration (IC50) in assay [1] came out at 4.13 µM; in assay [2], 2.53 µM.

In the case of `CN(C)C/C=C/C(=O)N1Cc2sc(C#N)cc2[C@H](c2ccccc2-c2cn(C)nc2C(F)(F)F)C1` [Example 3, (S, E)-6-(4-(Dimethylamino)but-2-enoyl)-4-(2-(1-methyl-3-(trifluoromethyl)-1 H-pyrazol-4-yl)phenyl)-4,5,6,7-tetrahydrothieno[2,3-c]pyridine-2-carbonitrile], the IC50 in assay [1] was 7.87 µM; in assay [2], 0.985 µM.

As for `CCn1cc(-c2c(F)cccc2[C@@H]2CN(C(=O)/C=C/C3CC[C@@H](C)N3)Cc3sc(C#N)cc32)c(C(F)(F)F)n1` (stereo in doubt) [Example 93, (S)-4-(2-(1-ethyl-3-(trifluoromethyl)-1H pyrazol-4-yl)-3-fluorophenyl)-6-((E)-3-((2S,5R)-5-methylpyrrolidin-2-yl)acryloyl)-4,5,6,7-tetrahydrothieno[2,3-c]pyridine-2-carbonitrile], the IC50 is 0.76 µM in assay [1] and 0.145 µM in assay [2].

`CCn1cc(-c2c(F)cccc2C2CN(C(=O)/C=C/CN(C)C)Cc3sc(C#N)cc32)c(C(F)(F)F)n1` (centres unmarked) [Compound 234]: the values for the IC50 in assay [1] and in assay [2] were 2.23 µM and 0.339 µM, respectively.

Consider `CCn1cc(-c2ccccc2C2CN(C(=O)/C=C/CN(C)C)Cc3sc(C#N)c(C)c32)c(C(F)(F)F)n1` (centres unmarked) [Compound 232], for which the IC50 in assay [1] came to 1.36 µM; in assay [2], 0.402 µM.

For `CCn1cc(-c2ccccc2[C@@H]2CN(C(=O)/C=C/[C@@H]3C[C@H](C)CN3)Cc3sc(C#N)cc32)c(C(F)(F)F)n1` [Example 80, (S)-4-(2-(1-Ethyl-3-(trifluoromethyl)-1H pyrazol-4-yl)phenyl)-6-((E)-3-((2S,4S)-4-methylpyrrolidin-2-yl)acryloyl)-4,5,6,7-tetrahydrothieno[2,3-c]pyridine-2-carbonitrile], the IC50 in assay [1] is 1.24 µM; in assay [2], 0.212 µM.

Take `CCn1cc(-c2c(C)cccc2[C@@H]2CN(C(=O)/C=C/CN(C)C)Cc3sc(C#N)cc32)c(C(F)(F)F)n1` [Compound 242]: the figures for the IC50 in assay [1] and in assay [2] were 2.32 µM and 1.29 µM, respectively.

On to `CCn1cc(-c2c(F)cccc2[C@@H]2CN(C(=O)/C=C/CNC34CC(C3)C4)Cc3sc(C#N)cc32)c(C(F)(F)F)n1` [Example 246, (S, E)-6-(4-(bicyclo[1.1.1]pentan-1-ylamino)but-2-enoyl)-4-(2-(1-ethyl-3-(trifluoromethyl)-1 H-pyrazol-4-yl)-3-fluorophenyl)-4,5,6,7-tetrahydrothieno[2,3-c]pyridine-2-carbonitrile], for which the concentration for half-maximal inhibition (IC50) in assay [1] is 1.65 µM; in assay [2], 0.483 µM.

As for `CCn1cc(-c2ccccc2[C@@H]2CN(C(=O)C#CC3(N)CCCC3)Cc3sc(C#N)cc32)c(C(F)(F)F)n1` [Example 138, (S)-6-(3-(1-Aminocyclopentyl)propioloyl)-4-(2-(1-ethyl-3-(trifluoromethyl)-1 H-pyrazol-4-yl)phenyl)-4,5,6,7-tetrahydrothieno[2,3-c]pyridine-2-carbonitrile], the half-inhibitory concentration (IC50) in assay [1] worked out at 0.5 µM; in assay [2] it was 2.69 µM.

Take `C=CC(=O)N1Cc2sc(C#N)cc2C(c2cccc(F)c2-c2cn(CC)nc2C(F)(F)F)C1` (centres unmarked) [Compound 236]: the IC50 amounted to 0.24 µM in assay [1] and 0.356 µM in assay [2].

With `CCn1cc(-c2c(F)cccc2[C@@H]2CN(C(=O)/C=C/CN)Cc3sc(C#N)cc32)c(C(F)(F)F)n1` [Example 51, (S)-6-((E)-4-aminobut-2-enoyl)-4-((S)-2-(1-ethyl-3-(trifluoromethyl)-1 H-pyrazol-4-yl)-3-fluorophenyl)-4,5,6,7-tetrahydrothieno[2,3-c]pyridine-2-carbonitrile], the IC50 in assay [1] amounted to 1.29 µM; in assay [2], 0.569 µM.

On to `CCn1cc(-c2ccccc2[C@@H]2CN(C(=O)/C=C/CF)Cc3sc(C#N)cc32)c(C(F)(F)F)n1` [Example 20, (S, E)-4-(2-(1-ethyl-3-(trifluoromethyl)-1 H-pyrazol-4-yl)phenyl)-6-(4-fluorobut-2-enoyl)-4,5,6,7-tetrahydrothieno[2,3-c]pyridine-2-carbonitrile], for which the IC50 was 0.69 µM in assay [1] and 0.692 µM in assay [2].

For `CCn1cc(-c2ccccc2[C@@H]2CN(C(=O)/C=C/CN(C)C)Cc3sc(C#N)c(C)c32)c(C(F)(F)F)n1` [Compound 239], the results for the IC50 in assay [1] and in assay [2] were 1.12 µM and 0.187 µM, respectively.

With `CCn1cc(-c2c(F)cccc2[C@@H]2CN(C(=O)/C=C/[C@@H]3CCN3)Cc3sc(C#N)cc32)c(C(F)(F)F)n1` [Example 53, (S)-6-((E)-3-((S)-azetidin-2-yl)acryloyl)-4-((S)-2-(1-ethyl-3-(trifluoromethyl)-1 H-pyrazol-4-yl)-3-fluorophenyl)-4,5,6,7-tetrahydrothieno[2,3-c]pyridine-2-carbonitrile], the 50% inhibitory concentration (IC50) in assay [1] stood at 0.34 µM; in assay [2] it was 0.191 µM.
